Reference: patent US20230045421A1 (priority 2018, published 2023)
Like-named read-outs stand apart in the source and are kept apart here.

Test system: HBV rcDNA
Assay: HepDE19 assay with bDNA quantitation of HBV rcDNA
Assay type: cell-based, hepatitis B virus
Outline: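 HepDE19 cells (HepG2-derived, Tet-regulated HBV replication) were deprived of tetracycline and then exposed to compounds for 7 days at 37 °C in 0.5% DMSO, 8-point titration from 25 μM. rcDNA was quantified by bDNA and EC50/EC90 came from 4-parameter fits. CC50 was measured by CellTiter-Glo ATP content on replicate plates after 4 days.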

[1] = HepDE19 assay, inhibition of formation of rcDNA; read-out: DE-19bDNA EC50
[2] = Hepatitis B virus, HepDE19, HepDE19 assay, inhibition of formation of rcDNA; read-out: DE-19bDNA EC50
[3] = HepDE19 assay, inhibition of formation of relaxed circular DNA (rcDNA), bDNA quantitation; read-out: DE-19bDNA EC50

**Q.** `CC(c1cn(C2CC2)c(=O)c2ccccc12)N(C)C(=O)Nc1ccc(F)c(Cl)c1` (single isomer, unassigned) [Compound 189, 3-(3-Chloro-4-fluorophenyl)-1-(1-(2-cyclopropyl-1-oxo-1,2-dihydroisoquinolin-4-yl)ethyl)-1-methylurea] was tested. Which EC50 [1] did it give?
**A.** Its EC50 is 2400 nM.

**Q.** `CCOCCN(C(=O)Nc1ccc(F)c(Cl)c1)C(C)c1c[nH]c(=O)c2ccccc12` (single isomer, unassigned) [Compound 110, 3-(3-Chloro-4-fluorophenyl)-1-(2-ethoxyethyl)-1-(1-(1-oxo-1,2-dihydroisoquinolin-4-yl)ethyl)urea] was tested. Which EC50 (read-out: DE-19bDNA EC50; HepDE19 assay, inhibition of formation of rcDNA) did it give?
**A.** The EC50 was 170 nM.

**Q.** For `CC(c1cn(CCCO)c(=O)c2ccccc12)N(C)C(=O)Nc1ccc(F)c(Cl)c1` (single isomer, unassigned) [Compound 206, 3-(3-Chloro-4-fluorophenyl)-1-(1-(2-(3-hydroxypropyl)-1-oxo-1,2-dihydroisoquinolin-4-yl)ethyl)-1-methylurea], which EC50 [2] is on record?
**A.** Its EC50 is 850 nM.

**Q.** Which EC50 [3] does the source give for `CC(c1cnc(OCc2nc[nH]n2)c2cc(F)c(F)cc12)N(CCCO)C(=O)Nc1ccc(F)c(Cl)c1` (single isomer, unassigned) [Compound 364, 1-(1-(1-((1H-1,2,4-Triazol-3-yl)methoxy)-6,7-difluoroisoquinolin-4-yl)ethyl)-3-(3-chloro-4-fluorophenyl)-1-(3-hydroxypropyl)urea] here?
**A.** Its EC50 is 2000 nM.

**Q.** With `CCCn1cc(C(C)N(C)C(=O)Nc2ccc(F)c(Cl)c2)c2ccccc2c1=O` (single isomer, unassigned) [Compound 186, 3-(3-Chloro-4-fluorophenyl)-1-methyl-1-(1-(1-oxo-2-propyl-1,2-dihydroisoquinolin-4-yl)ethyl)urea] as the compound, how does the EC50 [1] read?
**A.** The EC50 was 8400 nM.

**Q.** Which EC50 [2] does the source give for `COc1ncc(CN(C(=O)Nc2ccc(F)c(Cl)c2)C(C)C)c2ccccc12` [Compound 19, 3-(3-Chloro-4-fluorophenyl)-1-isopropyl-1-((1-methoxyisoquinolin-4-yl)methyl)urea] here?
**A.** The EC50 was 2100 nM.

**Q.** `CC(=O)N1CCC(CN(C(=O)Nc2ccc(F)c(Cl)c2)C(C)c2c[nH]c(=O)c3ccccc23)CC1` (single isomer, unassigned) [Compound 202, 1-((1-Acetylpiperidin-4-yl)methyl)-3-(3-chloro-4-fluorophenyl)-1-(1-(1-oxo-1,2-dihydroisoquinolin-4-yl)ethyl)urea] was tested. Which EC50 [1] did it give?
**A.** Its EC50 is 7300 nM.

**Q.** `CC(c1c[nH]c(=O)c2c(F)c(F)ccc12)N(CCS(N)(=O)=O)C(=O)Nc1ccc(F)c(Cl)c1` (racemic) [Compound 393, 2-(3-(3-chloro-4-fluorophenyl)-1-(1-(7,8-difluoro-1-oxo-1,2-dihydroisoquinolin-4-yl)ethyl)ureido) ethane-1-sulfonamide] was tested. Which EC50 (Hepatitis B virus, HepDE19, HepDE19 assay, inhibition of formation of relaxed circular DNA (rcDNA), bDNA quantitation; read-out: DE-19bDNA EC50) did it give?
**A.** Its EC50 is 37 nM.

**Q.** How did the EC50 [1] turn out when `CC(c1cn(C2CC2)c(=O)c2ccccc12)N(C)C(=O)Nc1ccc(F)c(Cl)c1` (single isomer, unassigned) [Compound 190, 3-(3-Chloro-4-fluorophenyl)-1-(1-(2-cyclopropyl-1-oxo-1,2-dihydroisoquinolin-4-yl)ethyl)-1-methylurea] was run?
**A.** Its EC50 is 170 nM.

**Q.** For `CCC(c1cnc(OC)c2ccccc12)N(CC)C(=O)Nc1ccc(F)c(Cl)c1` (single isomer, unassigned) [Compound 36, 3-(3-Chloro-4-fluorophenyl)-1-ethyl-1-(1-(1-methoxyisoquinolin-4-yl)propyl)urea], which EC50 [1] is on record?
**A.** The EC50 was 2100 nM.

**Q.** Which EC50 [2] does the source give for `COCCCN(Cc1cnc(OC)c2ccccc12)C(=O)Nc1ccc(F)c(Cl)c1` [Compound 47, 3-(3-Chloro-4-fluorophenyl)-1-((1-methoxyisoquinolin-4-yl)methyl)-1-(3-methoxypropyl)urea] here?
**A.** The EC50 was 2000 nM.

**Q.** For `CC(c1c[nH]c(=O)c2c(F)c(F)ccc12)N(C)C(=O)Nc1ccccc1` (single isomer, unassigned) [Compound 437, 1-(1-(7,8-difluoro-1-oxo-1,2-dihydroisoquinolin-4-yl)ethyl)-1-methyl-3-phenylurea], which EC50 (read-out: DE-19bDNA EC50; HepDE19 assay, inhibition of formation of relaxed circular DNA (rcDNA), bDNA quantitation) is on record?
**A.** The EC50 was 140 nM.

**Q.** For `CCN(C(=O)Nc1ccc(F)cc1)C(C)c1c[nH]c(=O)c2c(F)c(F)ccc12` (single isomer, unassigned) [Compound 465, 1-(1-(7,8-Difluoro-1-oxo-1,2-dihydroisoquinolin-4-yl)ethyl)-1-ethyl-3-(4-fluorophenyl)urea], which EC50 [3] is on record?
**A.** Its EC50 is 19 nM.
